Converted amounts (≈) assume the structure as drawn.
How the values were obtained:
Candida albicans 4106 = test: Broth microdilution antifungal susceptibility (MIC/MFC); type: cell-based; conditions: strain 4106, FLC resistant
Protocol: (§1) In this study, 10 clinical Candida albicans isolates, comprising of 5 fluconazole susceptible and 5 fluconazole resistant, were used. C. albicans SC5314 was also used as a control laboratory strain. Clinical strains used in this study were stored at −80 °C supplemented with 20% glycerol in the Department of Clinical Microbiology and Infectious Diseases, University of the Witwatersrand, Johannesburg and were previously collected under the ethical clearance number M000402, obtained from the Human Research Ethics Committee, University of the Witwatersrand. For experimental purpose each strain from glycerol stock was recovered on Sabouraud Dextrose (SDA) agar plates at 37 °C for 24 h.
(§2) Minimum Inhibitory Concentration (MIC) and Minimum Fungicidal Concentrations (MFC) of all newly synthesized eugenol-tosylate congeners (ETC-1–ETC-7) against C. albicans strains were determined by broth microdilution assay in accordance with the approved guidelines described by Clinical and Laboratory Standards Institute (CLSI) guidelines M27-A[38]. The test compounds were prepared in 1% DMSO to a stock concentration of 8192 µg/ml. Two-fold dilutions of test compounds (100 µL) were prepared in 96-well flat-bottom microtiter plates, inoculated with 100 µl of inoculum (1 × 10^6 cells/mL) and incubated at 37 °C for 24 hours. In every set of experiment, positive control (fluconazole), negative vehicle control (1% DMSO) and culture control (media and cells only) were included. MIC’s were determined visibly as the lowest concentration of the test compounds that inhibited growth of test organism. To determine MFC, each well without visible growth was sub-cultured onto agar plates. Concentration in the first well with no growth on plate was taken as MFC. […] The experiment was performed in triplicate to validate the results.

Candida albicans 4179 = test: as above; type: cell-based; conditions: strain 4179, FLC susceptible
Protocol: as §1, §2

Candida albicans 4180 = test: as above; type: cell-based; conditions: strain 4180, FLC susceptible
Protocol: as §1, §2

Candida albicans 4576 = test: as above; type: cell-based; conditions: strain 4576, FLC susceptible
Protocol: as §1, §2

Candida albicans SC5314 = test: as above; type: cell-based; conditions: SC5314, FLC susceptible
Protocol: as §1, §2

[1] = system: C. albicans 4175, C. albicans 5112 and C. albicans SC5314; test: FITC annexin V/PI staining flow cytometry, ranges over three strains; type: cell-based, Candida albicans; conditions: range over 0.5 × MIC, 1 × MIC, 2 × MIC and three strains
Protocol: To study the effect of test compounds on apoptotic markers protoplasts were prepared as described previously, with modifications. Briefly, mid-exponential phase cells were harvested and exposed to various concentrations of test compounds (0.5 × MIC, 1 × MIC and 2×MIC) for 3 h. The cells were then washed twice with protoplast buffer- I (1 M sorbitol, 50 mM tris base, 10 mM MgCl2 and 30 mM DTT) and incubated in the same buffer for 15 minutes at 25 °C, followed by centrifugation at 1500 rpm for 5 minutes. Supernatant was removed and cells were incubated with buffer- II (1 M sorbitol, 50 mM tris base, 10 mM MgCl2 and 1 mM DTT) supplemented with lyticase enzyme (≥1 µg/mL) used to digest the cell wall for 1 h at 25 °C. Buffer- II were removed by centrifugation and then cells were incubated with buffer- III (1 M sorbitol, 50 mM tris base and 10 mM MgCl2) for 20 minutes at room temperature. After the incubation cells were again centrifuged at 1500 rpm for 5 minutes and supernatant was discarded. Protoplasts then finally washed once with PBS and re-suspended in the same for further use. In each washing steps the volume of these protoplast buffers were 5 times to cell volume with pH 7.4.
This assay was used to identify early apoptosis by detecting movement of phosphatidylserine (PS) from the inner to the outer leaflet of plasma membrane. FITC annexin V Apoptosis Detection Kit I (BD Biosciences, CA, USA) was used according to the manufacturer’s instructions. Protoplasts of C. albicans cells treated with different concentrations of the test compounds, as mentioned in above section, were resuspended in 1X annexin V binding buffer ([…]) at a concentration of 1 × 10^6 cells per ml. To the 100 µl of this solution, 5 µl each of FITC annexin V and propidium iodide (PI) was added. Tubes were gently vortexed and incubated for 15 minutes at 25 °C in the dark. After incubation, 400 µl of 1X annexin V binding buffer was added to each tube and analyzed using the BD LSRFortessa Flow cytometer (Becton Dickinson, NJ, USA). The cell populations in four different quadrants of a quadrant dot plot were analyzed and interpreted as; Q1: necrosis (annexin V^−/PI^+), Q2: late apoptosis (annexin V^+/PI^+), Q3: early apoptosis (annexin V^+/PI^−) and Q4: viable cells (annexin V^−/PI^−), by using software FlowJo_V10.

## C=CCc1ccc(OS(=O)(=O)c2ccc(C(=O)O)cc2)c(OC)c1 [ETC-7, 4-{[2-methoxy-4-(prop-2-en-1-yl)phenoxy]sulfonyl}benzoic acid]
Candida albicans 4106
  MFC: 4 µg/mL (≈ 11.5 µM)
Candida albicans 4106; 37 °C, 24 h
  MIC: 2 µg/mL (≈ 5.74 µM)
Candida albicans 4179
  MFC: 4 µg/mL (≈ 11.5 µM)
Candida albicans 4179; 37 °C, 24 h
  MIC: 2 µg/mL (≈ 5.74 µM)
Candida albicans 4180
  MFC: 8 µg/mL (≈ 23 µM)
Candida albicans 4180; 37 °C, 24 h
  MIC: 4 µg/mL (≈ 11.5 µM)
Candida albicans 4576
  MFC: 4 µg/mL (≈ 11.5 µM)
Candida albicans 4576; 37 °C, 24 h
  MIC: 2 µg/mL (≈ 5.74 µM)
Candida albicans SC5314
  MFC: 2 µg/mL (≈ 5.74 µM)
Candida albicans SC5314; 37 °C, 24 h
  MIC: 1 µg/mL (≈ 2.87 µM)
[1]
  early apoptosis: 8–32%
  late apoptosis: 2–26%
  necrosis: 1–31%
